Experimental data taken from patent publication US20120295838A1, “Selective poly-substituted glycine antibiotics and related compositions” (priority 2008, published 2012).
Read-outs that look alike come from different tables or passages of the source. Numbered stars: 1 amine (or outer) side, 2 acyl side, 3 side chain; on linkers, the order of the positions; unused ones are H or OH. Square brackets hold non-standard residues; d marks the D form. Peptide text beside a SMILES is read from it. N(1S-Me-propyl)Gly = CC[C@H](C)NCC(=O)O; X1 = CC(C)[C@H](C)N(CC(=O)[*:2])[*:1]; Nrpe = C[C@@H](NCC(=O)O)c1ccccc1; Nspe = C[C@H](NCC(=O)O)c1ccccc1; Nlys = NCCCCNCC(=O)O

Tests used:
[1] = MTS assay, NIH 3T3 cells; type: cell-based, mouse; conditions: NIH 3T3 fibroblast cells
Description: The potencies of all compounds were determined against representative Gram-negative (E. coli ATCC 35218) and Gram-positive (B. subtilis ATCC 6633) biosafety level 1 (BSL1) organisms. In addition to hemolytic activity, the conventional measure of toxicity to mammalian cells, the effect of each ampetoid on NIH 3T3 mouse fibroblast cells was determined using the MTS tetrazolium salt-based colorimetric assay. While hemolysis measures the degree to which erythrocytes are lysed, the MTS assay indirectly quantifies the extent to which cellular metabolic activity is inhibited.
MTS assays. NIH/3T3 cells (ATCC Corporation) cultured at 37° C. and 5% CO2 in complete Dulbecco's modified eagle's media (CDMEM) supplemented with 1% sodium pyruvate, 1% penicillin-streptomycin, 1.5 g/L NaHCO3, and 10% fetal bovine serum. Cells were seeded at a density of 5,000 cells per well for NIH/3T3 cells in 96-well plates (100 μl total volume). A peptoid solution plate (100 μL total volume per well) was prepared by serial dilution of aqueous peptoid stock solution in Hank's balanced salt solution (HBSS) media. The day-old cell monolayers were washed with HBSS and media was replaced with 100 μL HBSS. The contents of the peptoid solution plate were transferred onto corresponding wells of the cell monolayer plate, and 40 μL MTS reagent (Promega, Inc.) was added to each well. After incubating for 3 hours at 37° C., absorbance at 490 nm was determined. […] The average of six replicates is reported.

[2] = test system: E. coli ATCC 35218; type: cell-based; conditions: ATCC 35218
Description: Whereas the preceding generation of molecules was designed to elucidate structure function relationships of specific molecular parameters (chirality, length, hydrophobicity, etc.), another generation compounds were designed explicitly to explore effects on selectivity. Antimicrobial activity of these compounds was tested against bacterial strains E. coli (ATTC 35218) and B. subtilis (ATTC 6633) in cation-adjusted MHB using the microdilution protocols previously described. The sequences, antimicrobial activities, hemolytic activities, and metabolic inhibitory concentrations against NIH 3T3 mouse fibroblast cells are summarized in Table 3 and the rationale of their design is described below.
Screening antibacterial assays. MICs were determined in 96-well microtiter plates in accordance with CLSI M7-A6 protocols. Peptoid solutions with 50 μL total volume were prepared using 2:1 serial dilutions. 50 i—tL of bacteria inoculum (1×10^6 CFU/mL) prepared in cation-adjusted Mueller-Hinton broth (CAMHB) was added to test wells. Control wells contained 100 μL MHB (no growth) or 50 μL inoculums with 50 μL MHB with no peptoid. […] Reported values were reproducible over three experiments, each containing two parallel trials.
Antibacterial Assays for Compositions. MICs were determined according to CLSI M7-A6 protocols in a 96-well microtiter plate. In test wells, 50 μL bacterial inoculum (1×10^6 CFU/ml) in cation-adjusted Mueller-Hinton broth (CAMHB) was added to 50 μL peptoid solution in CAMHB (prepared by 1:2 serial dilutions). Positive controls contained 50 μL inoculum and 50 μL CAMHB without peptoid. […] MIC values reported were reproducible between three independent experimental replicates, each consisting of two parallel trials.

[3] = test system: human erythrocytes; experiment: Hemolysis assay; type: cell-based
Description: (§1) Hemolysis assays. Erythrocytes were isolated from freshly drawn, heparanized human blood and resuspended to 20 vol % in PBS (pH 7.4). In a 96-well microtiter plate, 100 μL erythrocyte suspension was added to 100 uL peptoid solution in PBS (prepared by 1:2 serial dilutions), or 100 μL PBS in the case of negative controls. 100% hemolysis wells contained 100 μL, blood cell suspension with 100 μL 0.2 vol % Triton X-100. The plate was incubated for 1 h at 37° C., then each well was diluted with 1504 PBS. The plate was then centrifuged at 1200 g for 15 min, 100 μL of the supernatant from each well transferred to a fresh microtiter plate, and A350 measured.
Hemolysis assays. Erythrocytes were isolated from freshly drawn, heparanized human blood and resuspended in PBS (pH 7.4) to make a 20% volume suspension. Peptoid solutions were prepared by serial dilution (2:1) in a 96-well microtiter plate. For test wells, 100 μLL of erythrocyte suspension was added to 100 μL of peptoid solution in PBS; PBS without peptoid was used as the negative control and 0.2 vol % Triton X-100 as the positive control that indicates 100% hemolysis. After 1 hour incubation at 37° C., each well was diluted with 150 μL PBS. Plates were then centrifuged at 1,200×g for 15 minutes to pellet the cells. 30 μL of the supernatant from each well were transferred to the corresponding well of a second 96-well plate that contains 70 μL PBS.
as §1, with “assays for Compositions.” for “assays.”, “100” for “100 uL”, “μL” for “μL,”, “150 μL” for “1504”, “1200g” for “1200 g”

[4] = Table 6, 50% inhibitory dose against NIH 3T3 mouse fibroblast cells, read-out: ID50

## C[C@H](c1ccccc1)N(CC(N)=O)C(=O)CN(C(=O)CN(CCCCN)C(=O)CN(C(=O)CN(C(=O)CN(CCCCN)C(=O)CN(C(=O)CN(C(=O)CN(CCCCN)C(=O)CN(C(=O)CN(C(=O)CNCCCCN)[C@@H](C)c1ccccc1)[C@H](C)c1ccccc1)[C@@H](C)c1ccccc1)[C@H](C)c1ccccc1)[C@@H](C)c1ccccc1)[C@H](C)c1ccccc1)[C@@H](C)c1ccccc1 [1-Nrpe3,6,9,12, H-(Nlys-Nspe-Nrpe)4-NH2]
[1]; [4]
  CC50 at 3 h: 3.8 µM

## CC(C)[C@H](C)N(CC(=O)N(CCCCN)CC(=O)N(CC(=O)N(CC(=O)N(CCCCN)CC(=O)N(CC(=O)N(CC(=O)N(CCCCN)CC(=O)N(CC(=O)N(CC(N)=O)[C@@H](C)c1ccccc1)[C@@H](C)c1ccccc1)[C@@H](C)C(C)C)[C@@H](C)C(C)C)[C@@H](C)c1ccccc1)[C@@H](C)c1ccccc1)C(=O)CN(C(=O)CNCCCCN)[C@@H](C)C(C)C [1-Nsdp2,3,8,9, H-(Nlys-Nsdp-Nsdp-Nlys-Nspe-Nspe)2-NH2] (H-[Nlys][X1][X1][Nlys][Nspe][Nspe][Nlys][X1][X1][Nlys][Nspe][Nspe]-NH2)
[1]; mouse
  CC50 at 3 h: 19 µM
[2]
  E. coli MIC: 12.5 µM

## C[C@H](NCC(=O)N(CCCCN)CC(=O)N(CC(=O)N(CCCCN)CC(=O)N(CCCCN)CC(=O)N(CC(=O)N(CC(=O)N(CCCCN)CC(=O)N(CC(=O)N(CCCCN)CC(=O)N(CCCCN)CC(=O)N(CC(N)=O)[C@@H](C)c1ccccc1)[C@@H](C)c1ccccc1)[C@@H](C)c1ccccc1)[C@@H](C)c1ccccc1)[C@@H](C)c1ccccc1)c1ccccc1 [1B12 mer-Nlys4,10, H-(Nspe-Nlys-Nspe-Nlys-Nlys-Nspe)2-NH2] (H-[Nspe][Nlys][Nspe][Nlys][Nlys][Nspe][Nspe][Nlys][Nspe][Nlys][Nlys][Nspe]-NH2)
[1]; mouse
  CC50 at 3 h: 83 µM
[2]
  E. coli MIC: 50 µM

## C[C@H](c1ccccc1)N(CC(=O)N(CC(N)=O)[C@@H](C)c1ccccc1)C(=O)CN(CCCCN)C(=O)CN(C(=O)CN(C(=O)CN(CCCCN)C(=O)CN(C(=O)CN(C(=O)CN(CCCCN)C(=O)CN(C(=O)CN(C(=O)CNCCCCN)[C@H](C)c1ccccc1)[C@@H](C)c1ccccc1)[C@H](C)c1ccccc1)[C@@H](C)c1ccccc1)[C@H](C)c1ccccc1)[C@@H](C)c1ccccc1 [1-Nrpe2,5,8,11, H-(Nlys-Nrpe-Nspe)4-NH2] (H-[Nlys][Nrpe][Nspe][Nlys][Nrpe][Nspe][Nlys][Nrpe][Nspe][Nlys][Nrpe][Nspe]-NH2)
[1]; [4]
  CC50 at 3 h: 5.2 µM

## CC[C@H](C)N(CC(=O)N(CC(=O)N(CC(=O)N(CCCCN)CC(N)=O)[C@@H](C)c1ccccc1)[C@@H](C)CC)C(=O)CN(CCCCN)C(=O)CN(C(=O)CN(CCCCN)C(=O)CN(C(=O)CN(C(=O)CN(C(=O)CN(C(=O)CNCCCCN)[C@@H](C)CC)[C@@H](C)c1ccccc1)[C@@H](C)CC)[C@@H](C)c1ccccc1)[C@@H](C)c1ccccc1 [2scrambled, H-Nlys-Nssb-Nspe-Nssb-Nspe-Nlys-Nspe-Nlys-Nssb-Nssb-Nspe-Nlys-NH2] (H-[Nlys][N(1S-Me-propyl)Gly][Nspe][N(1S-Me-propyl)Gly][Nspe][Nlys][Nspe][Nlys][N(1S-Me-propyl)Gly][N(1S-Me-propyl)Gly][Nspe][Nlys]-NH2)
[3]
  HD10 (10% hemolytic dose): > 120 µM

## C[C@H](NCC(=O)N(CCCCN)CC(=O)N(CC(=O)N(CCCCN)CC(=O)N(CCCCN)CC(=O)N(CC(=O)N(CC(=O)N(CCCCN)CC(=O)N(CC(=O)N(CCCCN)CC(=O)N(CCCCN)CC(=O)N(CC(=O)N(CC(=O)N(CCCCN)CC(=O)N(CC(N)=O)[C@@H](C)c1ccccc1)[C@@H](C)c1ccccc1)[C@@H](C)c1ccccc1)[C@@H](C)c1ccccc1)[C@@H](C)c1ccccc1)[C@@H](C)c1ccccc1)[C@@H](C)c1ccccc1)c1ccccc1 [1B15 mer-Nlys4,10, H-(Nspe-Nlys-Nspe-Nlys-Nlys-Nspe)2-Nspe-Nlys-Nspe-NH2] (H-[Nspe][Nlys][Nspe][Nlys][Nlys][Nspe][Nspe][Nlys][Nspe][Nlys][Nlys][Nspe][Nspe][Nlys][Nspe]-NH2)
[1]; mouse
  CC50 at 3 h: 16 µM
[2]
  E. coli MIC: 50 µM

## C[C@@H](c1ccccc1)N(CC(N)=O)C(=O)CN(C(=O)CN(CCC(=O)O)C(=O)CN(C(=O)CN(C(=O)CN(CCC(=O)O)C(=O)CN(C(=O)CN(C(=O)CN(CCC(=O)O)C(=O)CN(C(=O)CN(C(=O)CNCCC(=O)O)[C@@H](C)c1ccccc1)[C@@H](C)c1ccccc1)[C@@H](C)c1ccccc1)[C@@H](C)c1ccccc1)[C@@H](C)c1ccccc1)[C@@H](C)c1ccccc1)[C@@H](C)c1ccccc1 [1-Nglu1.4.7.10, H-(Nglu-Nspe-Nspe)4-NH2]
[3]; red cells of human, 1 h
  HD10 (10% hemolytic dose): >110/>110 μM

## C[C@H](c1ccccc1)N(CC(=O)N(CCCCN)CC(=O)N(CC(=O)N(CC(=O)N(CCCCN)CC(=O)N(CC(=O)N(CC(=O)N(CCCCN)CC(=O)N(CC(=O)N(CC(N)=O)[C@@H](C)c1ccccc1)[C@@H](C)c1ccccc1)[C@@H](C)c1ccccc1)[C@@H](C)c1ccccc1)[C@H](C)c1ccccc1)[C@H](C)c1ccccc1)C(=O)CN(C(=O)CNCCCCN)[C@H](C)c1ccccc1 [1-Nrpe2,3,5,6, H-(Nlys-Nrpe-Nrpe)2-(Nlys-Nspe-Nspe)2-NH2] (H-[Nlys][Nrpe][Nrpe][Nlys][Nrpe][Nrpe][Nlys][Nspe][Nspe][Nlys][Nspe][Nspe]-NH2)
[1]; [4]
  CC50 at 3 h: 4.8 µM

## C[C@@H](c1ccccc1)N(CC(N)=O)C(=O)CN(C(=O)CN(CCCCN)C(=O)CN(C(=O)CN(C(=O)CNCCCCN)[C@@H](C)c1ccccc1)[C@@H](C)c1ccccc1)[C@@H](C)c1ccccc1 [16 mer, H-(Nlys-Nspe-Nspe)2-NH2] (H-[Nlys][Nspe][Nspe][Nlys][Nspe][Nspe]-NH2)
[3]
  HD10: >200/>200 μM
  HD50: >200/>200 μM

## C[C@H](NCC(=O)N(CCCCN)CC(=O)N(CC(=O)N(CCCCN)CC(=O)N(CCCCN)CC(=O)N(CCCCN)CC(=O)N(CC(=O)N(CCCCN)CC(=O)N(CC(=O)N(CCCCN)CC(=O)N(CCCCN)CC(=O)N(CC(N)=O)[C@@H](C)c1ccccc1)[C@@H](C)c1ccccc1)[C@@H](C)c1ccccc1)[C@@H](C)c1ccccc1)c1ccccc1 [1B12 mer-Nlys4,6,10, H-Nspe-Nlys-Nspe-Nlys-Nlys-Nlys-Nspe-Nlys-Nspe-Nlys-Nlys-Nspe-NH2] (H-[Nspe][Nlys][Nspe][Nlys][Nlys][Nlys][Nspe][Nlys][Nspe][Nlys][Nlys][Nspe]-NH2)
[1]; mouse
  CC50 at 3 h: > 100 µM
